ChEMBL document CHEMBL1201862, “PubChem BioAssay data set” (2004)
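Following 48 hours of exposure in 96-well plates, responses at five concentrations were used to interpolate endpoints linearly. GI50 marks 50% less growth.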 The source made the active and inactive calls. No stated cut-off is given here; in the data, active = GI50 up to about 1.1 µM and inactive = higher.

Experiments:
Assay in all cases: NCI tumour cell line growth inhibition, 48 h
SK-OV-3 = test system: SK-OV-3
U-251 = test system: U-251
RPMI-8226 = test system: RPMI-8226
M14 = test system: M14
CAKI-1 = test system: CAKI-1
SF-539 = test system: SF-539
KM12 = test system: KM12
MDA-N = test system: MDA-N
SNB-75 = test system: SNB-75
HCT-15 = test system: HCT-15
DU-145 = test system: DU-145
MDA-MB-231 = test system: MDA-MB-231
HL-60 = test system: HL-60
K562 = test system: K562
COLO 205 = test system: COLO 205
OVCAR-4 = test system: OVCAR-4
RXF 393 = test system: RXF 393
NCI-H23 = test system: NCI-H23
SF-268 = test system: SF-268
HCC 2998 = test system: HCC 2998

| SMILES | GI50 (SK-OV-3) | GI50 (U-251) | GI50 (RPMI-8226) | GI50 (M14) | GI50 (CAKI-1) | GI50 (SF-539) | GI50 (KM12) | GI50 (MDA-N) | GI50 (SNB-75) | GI50 (HCT-15) | GI50 (DU-145) | GI50 (MDA-MB-231) | GI50 (HL-60) | GI50 (K562) | GI50 (COLO 205) | GI50 (OVCAR-4) | GI50 (RXF 393) | GI50 (NCI-H23) | GI50 (SF-268) | GI50 (HCC 2998) |
| --- | --- | --- | --- | --- | --- | --- | --- | --- | --- | --- | --- | --- | --- | --- | --- | --- | --- | --- | --- | --- |
| CCCCCCCCCCCCCCCCCCOc1ccc(/C=C/C2=[N+](CCCl)CCO2)cc1 | > 100 µM (inactive) | 50.4 µM (inactive) | > 100 µM (inactive) | > 100 µM (inactive) | > 100 µM (inactive) | > 100 µM (inactive) | > 100 µM (inactive) | > 100 µM (inactive) | 3.54 µM (inactive) | > 100 µM | > 100 µM (inactive) | 41 µM (inactive) | 53.3 µM (inactive) | > 100 µM (inactive) | 70.1 µM (inactive) | > 100 µM (inactive) |  |  |  |  |
| COc1cc2c(cc1O)CCN[C@@]21CS[C@H]2c3c(OC(C)=O)c(C)c4c(c3C(COC1=O)N1C2C2NC(Cc3cc(C)c(OC)c(O)c32)[C@@H]1O)OCO4 (stereo partly specified) | < 0.01 µM (active) | < 0.01 µM (active) | < 0.01 µM (active) | < 0.01 µM (active) | < 0.01 µM (active) | < 0.01 µM (active) | < 0.01 µM (active) |  |  |  | < 0.01 µM (active) | < 0.01 µM (active) | < 0.01 µM (active) | < 0.01 µM (active) | < 0.01 µM (active) | < 0.01 µM (active) | < 0.01 µM (active) | < 0.01 µM (active) | < 0.01 µM (active) |  |
| C=C(C)[C@@H]1CC[C@]2(CO)CC[C@]3(C)[C@H](CC[C@@H]4[C@@]5(C)CC[C@H](O)C(C)(C)[C@@H]5CC[C@]43C)[C@@H]12 [BETULIN] |  | 11.8 µM (inactive) |  | 51.1 µM (inactive) | 15.3 µM (inactive) | 11.7 µM (inactive) | 9.71 µM (inactive) | 45 µM (inactive) | 12.7 µM (inactive) | 42.6 µM | 84.3 µM (inactive) | 33.3 µM (inactive) | 34 µM (inactive) | 15.8 µM (inactive) |  |  | 10.3 µM (inactive) | 94.8 µM (inactive) | 25.1 µM (inactive) |  |
| CNC(=O)ON(C(C)=O)C(=O)NC [CARACEMIDE] | 106 µM (inactive) | 82.8 µM (inactive) |  | 9.55 µM (inactive) | 55.2 µM (inactive) | 64.4 µM (inactive) | 59.8 µM (inactive) | 15.8 µM (inactive) | 70.3 µM (inactive) | 31 µM | 41.3 µM (inactive) |  |  |  |  | 63.8 µM (inactive) | 34.3 µM (inactive) | 41.8 µM (inactive) | 75 µM (inactive) | > 100 µM (inactive) |
| Cc1ccc(C(=O)/C=C/c2cccc([N+](=O)[O-])c2)cc1 | > 94.4 µM (inactive) | 22.2 µM (inactive) | 26.6 µM (inactive) | 98.6 µM (inactive) | > 92 µM (inactive) | > 58.6 µM (inactive) | 24.1 µM (inactive) |  | > 47.3 µM (inactive) | 21.6 µM |  |  | 36.6 µM (inactive) | 28.4 µM (inactive) | > 40.7 µM (inactive) | 46.9 µM (inactive) | > 43.7 µM (inactive) | > 74.5 µM (inactive) | > 67.5 µM (inactive) | > 54.7 µM (inactive) |
| O=C(c1ccccc1)c1c(-c2ccccc2)sc2nc3ccccc3nc12 | > 100 µM (inactive) | > 100 µM (inactive) | > 100 µM (inactive) | > 100 µM (inactive) | > 100 µM (inactive) | 47.9 µM (inactive) | > 100 µM (inactive) |  | 32.8 µM (inactive) | > 100 µM |  |  | > 100 µM (inactive) | > 100 µM (inactive) | > 100 µM (inactive) | 37.8 µM (inactive) | 45.4 µM (inactive) | > 100 µM (inactive) | > 100 µM (inactive) | > 100 µM (inactive) |
| CC(O)[C@@]1(c2ccccc2)CC2(CCN(C)CC2)O[C@H]1C (stereo partly specified) | 41 µM (inactive) | > 100 µM (inactive) | > 100 µM (inactive) | > 100 µM (inactive) | > 100 µM (inactive) | > 100 µM (inactive) | > 100 µM (inactive) |  | > 100 µM (inactive) | > 100 µM | > 100 µM (inactive) | > 100 µM (inactive) | 26.2 µM (inactive) | > 100 µM (inactive) | > 100 µM (inactive) | 98.6 µM (inactive) | > 100 µM (inactive) | > 100 µM (inactive) | > 100 µM (inactive) | > 100 µM (inactive) |
| ClC1(c2ccccc2)c2ccc(Br)cc2-c2cc(Br)ccc21 | 17.6 µM (inactive) | 17.6 µM (inactive) | 28.7 µM (inactive) | 14.2 µM (inactive) | 14.9 µM (inactive) | 18.7 µM (inactive) | 19.4 µM (inactive) |  |  | 16 µM | 22.6 µM (inactive) | 16.7 µM (inactive) | 19.3 µM (inactive) | > 100 µM (inactive) | 17.7 µM (inactive) | 14.1 µM (inactive) | 18.4 µM (inactive) | 15 µM (inactive) | 18.5 µM (inactive) | 19.7 µM (inactive) |
| N=C(N)NS(=O)(=O)c1ccc(Nc2c3ccccc3nc3c(C(=O)Nc4ccc(S(N)(=O)=O)cc4)cccc23)cc1 | > 100 µM (inactive) | 94.2 µM (inactive) | > 100 µM (inactive) | > 100 µM (inactive) | > 100 µM (inactive) | 52.5 µM (inactive) | > 100 µM (inactive) |  | 42.1 µM (inactive) | > 100 µM |  |  | 88.1 µM (inactive) | 33.3 µM (inactive) | > 100 µM (inactive) | > 100 µM (inactive) | 95.3 µM (inactive) | > 100 µM (inactive) | 98.9 µM (inactive) | 55.5 µM (inactive) |
| COC1=CC(=O)c2c(cc3c(c2O)-c2c(OC)cc4cc5c(c(O)c4c2OC(=O)CC(C)(O)C3)C(=O)CC(C)(O)C5)C1=O (stereo unspecified) | 2.76 µM (inactive) | 2.77 µM (inactive) | 1.32 µM (inactive) | 1.25 µM (inactive) | 2.23 µM (inactive) | 1.57 µM (inactive) | 2.41 µM (inactive) |  | 1.29 µM (inactive) | 1.95 µM |  |  | 1.34 µM (inactive) | 2.44 µM (inactive) | 1.57 µM (inactive) | 3.15 µM (inactive) | 2.05 µM (inactive) | 0.624 µM (active) | 2.97 µM (inactive) | 1.24 µM (inactive) |
| CC12CC(c3ccccc3O1)C(C(=O)Nc1ccc(F)cc1)C(=O)N2 (stereo unspecified) | > 100 µM (inactive) | > 100 µM (inactive) | 40.3 µM (inactive) | > 100 µM (inactive) | > 100 µM (inactive) | > 100 µM (inactive) | > 100 µM (inactive) | > 100 µM (inactive) |  | > 100 µM | > 100 µM (inactive) |  | 29.6 µM (inactive) | 47.9 µM (inactive) | > 100 µM (inactive) | 51.9 µM (inactive) |  | 44.6 µM (inactive) | > 100 µM (inactive) | > 100 µM (inactive) |
| COc1cc(/C=C2\C[C@H]3[C@@H]4CC=C5C[C@@H](N6CCCC6)CC[C@]5(C)[C@H]4CC[C@]3(C)[C@H]2O)cc(OC)c1OC | 18.6 µM (inactive) | 15.4 µM (inactive) | 6.4 µM (inactive) | 2.2 µM (inactive) | 15.5 µM (inactive) | 16.3 µM (inactive) | 7.57 µM (inactive) |  | 12.1 µM (inactive) | 11.7 µM | 16.8 µM (inactive) | 17.5 µM (inactive) | 9.12 µM (inactive) | 13 µM (inactive) | 14.8 µM (inactive) | 13.8 µM (inactive) | 7.57 µM (inactive) | 14.9 µM (inactive) | 3.28 µM (inactive) | 7.83 µM (inactive) |
| O=C(O)CCCC#CCCCC(=O)O | > 100 µM (inactive) | > 100 µM (inactive) |  | > 100 µM (inactive) | > 100 µM (inactive) | > 100 µM (inactive) | > 100 µM (inactive) | > 100 µM (inactive) | 43.5 µM (inactive) | > 100 µM | > 100 µM (inactive) |  |  | > 100 µM (inactive) | > 100 µM (inactive) | > 100 µM (inactive) | > 100 µM (inactive) | > 100 µM (inactive) | > 100 µM (inactive) | > 100 µM (inactive) |
| COc1cc(/C=C2\CCC(C)/C(=C\c3cc(OC)c(OC)c(OC)c3)C2=O)cc(OC)c1OC (stereo unspecified) | 10.5 µM (inactive) | 4.97 µM (inactive) | 0.286 µM (active) | 1.96 µM (inactive) | 2.99 µM (inactive) |  | 2.61 µM (inactive) | 2.96 µM (inactive) | 18.2 µM (inactive) | 1.99 µM | 7.66 µM (inactive) | 8.41 µM (inactive) |  | 2.69 µM (inactive) | 2.48 µM (inactive) |  | 2.55 µM (inactive) |  | 3.37 µM (inactive) |  |
| CCOc1cc2c(cc1O)/C(=N/NS(=O)(=O)c1ccc(C)cc1)C[C@@H]1[C@@H]2CC[C@]2(C)[C@@H](O)CC[C@@H]12 | 10.5 µM (inactive) | 6.53 µM (inactive) | 2.92 µM (inactive) | 3.21 µM (inactive) | 12.6 µM (inactive) | 3.45 µM (inactive) | 4.22 µM (inactive) | 1.2 µM (inactive) | 5.3 µM (inactive) | 4.53 µM |  | 8.51 µM (inactive) |  | 1.02 µM (active) | 3.36 µM (inactive) | 4.78 µM (inactive) | 4.85 µM (inactive) | 32.7 µM (inactive) | 7.13 µM (inactive) | 3.75 µM (inactive) |
| O=C(CON1C(=O)c2ccccc2C1=O)c1ccccc1 | > 100 µM (inactive) | > 100 µM (inactive) | 18.6 µM (inactive) | 57.1 µM (inactive) | 19.1 µM (inactive) | 37.5 µM (inactive) | > 100 µM (inactive) | > 100 µM (inactive) | 97.5 µM (inactive) | > 100 µM | > 100 µM (inactive) | > 100 µM (inactive) |  | 45.9 µM (inactive) | 56.4 µM (inactive) | 77.8 µM (inactive) | 55.8 µM (inactive) | > 100 µM (inactive) | > 100 µM (inactive) |  |
